These results are taken from patent publication US7968572B2, “Nitrogen-containing heterocyclic compound and pharmaceutical application thereof” (Ono Pharmaceuticals Co., Ltd., priority 2005, dated 2011).

Series [1] concerns TNF-α production stimulated by lipopolysaccharide (LPS) in THP-1. Put plainly: Inhibitory activity against TNF-α production using human cell lines (LPS-stimulated THP-1). It counts as cell-based. The note with it: 1.5 h, THP-1 cells, LPS stimulation, 90 minutes at 37° C., TNF-α by ELISA. The protocol:
Inhibitory Activity against TNF-α Production using Human Cell Lines
Using THP-1 which is a human monocytic cell line, the inhibitory effect of the compound of the present invention against TNF-α production stimulated by lipopolysaccharide (LPS) was studied.
Each 50 μL of lipopolysaccharide (LPS; 055:B5, Difco) prepared to a concentration of 40 ng/mL using RPMI-1640 medium containing 10% fetal calf serum (hereinafter abbreviated to RPMI-1640) and RPMI-1640 containing the compound of the present invention was added to a 96-well plate for cell culture. 100 μL of the cell suspension of THP-1 (Dainippon Pharmaceutical Co., Ltd, #06-202) prepared to a cell density of 2×10^6 cells/mL using RPMI-1640 was added and cultured for 90 minutes at 37° C. in an incubator (5% CO2, 95% air). After completion of the reaction, the culture medium supernatant was recovered and the amount of produced TNF-α was measured using an ELISA kit (Invitrogen, #850090192).
The inhibitory activity against TNF-α production, which is the effect of the compound of the present invention, was calculated as an inhibition rate (%) by the following equation: Inhibition rate (%)={(AC−AX)/(AC−AB)}×100
wherein AB is a measured value without LPS induction;
AC is a measured value with LPS induction in the absence of a test compound; and
AX is a measured value with LPS induction in the presence of a test compound.
Inhibition rate of compounds with each concentration was calculated, and a value indicating 50% inhibition (IC50) was determined from the inhibition curve.
(ELISA stands for enzyme-linked immunosorbent assay.)

The subject of series [2] is Chinese hamster lung cells (CHL/IU). Put plainly: Phospholipidosis detection system using a fluorescence labeling phospholipid analog (NBD-PE). Type of series: cell-based. Particulars: for Pospholipid accumulation increasing ratio (% of 30 uM amiodarone) (Dose of compound: 100 uM): about 24 hours with NBD-PE; for Judgment: phospholipidosis inducing activity, NBD-PE. The protocol: Study by a Phospholipidosis Detection System using a Fluorescence Labeling Phospholipid Analog Cell suspension (7×10^4 cells/ml) of Chinese hamster lung cells (CHL/IU) prepared using MEM (minimum essential medium) was added to a 96 well plate (96 well clear bottom plate) by 100 μL/necessary number of wells (2 wells for 1 dosage) and cultured for about 24 hours. After the culturing and subsequent removal of the supernatants on the 96 well plate, the compounds having respective concentrations prepared by dissolving or suspending in MEM medium containing 25 μmol/L of nitrobenzoxazole dipalmitoyl phosphatidyl ethanolamine (NBD-PE) (hereinafter abbreviated to NBD-PE medium) were added thereto by 100 μL/ well and treated for about 24 hours. Treating concentration of each compound was set to be 6.25, 12.5, 25, 50 or 100 μmol/L. […] In this connection, 5 wells of an untreated control (MEM medium alone) or an NBD-PE control (prepared by adding 1/100 volume of DMSO to the NBD-PE medium) were arranged for each compound and cultured in the same manner. After completion of the culturing and subsequent two times of washing with 100 μL/well of phosphate buffered saline (hereinafter abbreviated to PBS) (−), 100 μL of the MEM medium was added to all of the treated wells including two empty wells for the WST-1 background control and cultured for about 0.5 hour. Fluorescence intensity of each well was measured using a microplate reader (manufactured by Molecular Devices, SPECTRA max M2; excitation wavelength 485 nm/fluorescence wavelength 535 nm). Using average value of 2 wells for each dosage, the phospholipid increasing ratio (%) based on NBD-PE control was calculated using the following formula. Phospholipid accumulation increasing ratio (%)=100×(fluorescence intensity of substance to be tested−fluorescence intensity of untreated control)/(fluorescence intensity of NBD-PE control−fluorescence intensity of untreated control) (iii) Cytotoxicity Test The Pre value was calculated by measuring the 96 well plate which was measured in the measurement of phospholipid accumulation, using the microplate reader (manufactured by Molecular Devices, SPECTRA max M2) at a dominant wavelength of 450 nm and a correction wavelength of 690 nm. Premix WST-1 was added to the pre-measured 96 well plate by 5 μL/well. After 2 to 4 hours of culture, the Aft value was calculated by measuring in the same manner as in the Pre measurement. The background control value was subtracted from each of the measured values. Using the value obtained by subtracting the Pre value from the Aft value, the cell growth ratio (%) was calculated using the following formula.

Structures are written as SMILES.

In turn, `CC(C)(O)c1nc(-c2ccc(=O)n(-c3c(F)cccc3F)c2)c(-c2ccc(F)cc2F)o1` [Example 7 (21), 1-(2,6-difluorophenyl)-5-[5-(2,4-difluorophenyl)-2-(1-hydroxy-1-methylethyl)-1,3-oxazol-4-yl]-2(1H)-pyridinone] displayed a 50% inhibitory concentration (IC50) in series [1] of 1.7 nM. Besides, in series [2], the “Pospholipid accumulation increasing ratio (% of 30 uM amiodarone) (Dose of compound: 100 uM)” value is recorded as 8 % of 30 uM amiodarone and the Judgment result was “Negative”.
`C[C@@](O)(CO)c1nc(-c2ccc(=O)n(-c3c(F)cccc3F)c2)c(-c2ccc(F)cc2F)o1` [Example 167 (1), 1-(2,6-difluorophenyl)-5-{5-(2,4-difluorophenyl)-2-[(1R)-1,2-dihydroxy-1-methylethyl]-1,3-oxazol-4-yl}-2(1H)-pyridinone]: half-maximal inhibition in series [1] (IC50) was put at 0.8 nM. Moreover, in series [2], the “Pospholipid accumulation increasing ratio (% of 30 uM amiodarone) (Dose of compound: 100 uM)” value is 3 % of 30 uM amiodarone and the Judgment result is recorded as “Negative”.
For `CC(C)(O)[C@@H](O)c1nc(-c2ccc(=O)n(-c3c(F)cccc3F)c2)c(-c2ccc(F)cc2F)o1` [Example 227 (1), 1-(2,6-difluorophenyl)-5-{5-(2,4-difluorophenyl)-2-[(1R)-1,2-dihydroxy-2-methylpropyl]-1,3-oxazol-4-yl}-2(1H)-pyridinone] the same measures were 0.7 nM, 13 % of 30 uM amiodarone and “Negative”.
Take `O=c1ccc(-c2nc(C(O)(CO)CO)oc2-c2ccc(F)cc2F)cn1-c1c(F)cccc1F` [Example 7 (39), 1-(2,6-difluorophenyl)-5-{5-(2,4-difluorophenyl)-2-[1,2-dihydroxy-1-(hydroxymethyl)ethyl]-1,3-oxazol-4-yl}-2(1H)-pyridinone]: the half-maximal inhibitory concentration (IC50) in series [1] is 1.8 nM. In series [2], the “Pospholipid accumulation increasing ratio (% of 30 uM amiodarone) (Dose of compound: 100 uM)” value is on record as 11 % of 30 uM amiodarone and the Judgment result is “Negative”.
For `O=c1ccc(-c2oc(C(O)(CO)CO)nc2-c2ccc(F)cc2F)cn1-c1c(F)cccc1F` [Example 223, 1-(2,6-difluorophenyl)-5-{4-(2,4-difluorophenyl)-2-[1,2-dihydroxy-1-(hydroxymethyl)ethyl]-1,3-oxazol-5-yl}-2(1H)-pyridinone] the same measures were 2.1 nM, 12 % of 30 uM amiodarone and “Negative”.
Take `CC(C)(O)Cc1nc(-c2ccc(F)cc2F)c(-c2ccc(=O)n(-c3c(F)cccc3F)c2)o1` [Example 220, 1-(2,6-difluorophenyl)-5-[4-(2,4-difluorophenyl)-2-(2-hydroxy-2-methylpropyl)-1,3-oxazol-5-yl]-2(1H)-pyridinone]: in series [1], the IC50 turned out to be 1.4 nM. In series [2], the “Pospholipid accumulation increasing ratio (% of 30 uM amiodarone) (Dose of compound: 100 uM)” value is given as 11 % of 30 uM amiodarone and the Judgment result was “Negative”.
As to `C[C@@](O)(CO)c1nc(-c2ccc(F)cc2F)c(-c2ccc(=O)n(-c3c(F)cccc3F)c2)o1` [Example 211, 1-(2,6-difluorophenyl)-5-{4-(2,4-difluorophenyl)-2-[(1R)-1,2-dihydroxy-1-methylethyl]-1,3-oxazol-5-yl}-2(1H)-pyridinone], in series [1], the IC50 amounted to 0.6 nM. For the same compound, in series [2], the “Pospholipid accumulation increasing ratio (% of 30 uM amiodarone) (Dose of compound: 100 uM)” value was 8 % of 30 uM amiodarone and the Judgment result is given as “Negative”.
For `CC(C)(O)[C@H](O)c1nc(-c2ccc(F)cc2F)c(-c2ccc(=O)n(-c3c(F)cccc3F)c2)o1` [Example 206, 1-(2,6-difluorophenyl)-5-{4-(2,4-difluorophenyl)-2-[(1S)-1,2-dihydroxy-2-methylpropyl]-1,3-oxazol-5-yl}-2(1H)-pyridinone], in series [1], inhibition was half-maximal at 0.9 nM (IC50). In series [2], the “Pospholipid accumulation increasing ratio (% of 30 uM amiodarone) (Dose of compound: 100 uM)” value is 10 % of 30 uM amiodarone and the Judgment result is recorded as “Negative”.
As for `CC(C)(O)[C@H](O)c1nc(-c2ccc(=O)n(-c3c(F)cccc3F)c2)c(-c2ccc(F)cc2F)o1` [Example 227, 1-(2,6-difluorophenyl)-5-{5-(2,4-difluorophenyl)-2-[(1S)-1,2-dihydroxy-2-methylpropyl]-1,3-oxazol-4-yl}-2(1H)-pyridinone], the half-maximal inhibitory concentration (IC50) in series [1] came to 1.7 nM. For the same compound, in series [2], the “Pospholipid accumulation increasing ratio (% of 30 uM amiodarone) (Dose of compound: 100 uM)” value is 12 % of 30 uM amiodarone and the Judgment result is “Negative”.
Regarding `CC(C)(O)[C@@H](O)c1nc(-c2ccc(F)cc2F)c(-c2ccc(=O)n(-c3c(F)cccc3F)c2)o1` [Example 207, 1-(2,6-difluorophenyl)-5-{4-(2,4-difluorophenyl)-2-[(1R)-1,2-dihydroxy-2-methylpropyl]-1,3-oxazol-5-yl}-2(1H)-pyridinone], the half-inhibitory concentration (IC50) in series [1] worked out at 0.6 nM. For the same compound, in series [2], the “Pospholipid accumulation increasing ratio (% of 30 uM amiodarone) (Dose of compound: 100 uM)” value is listed as 11 % of 30 uM amiodarone and the Judgment entry is “Negative”.
For `C[C@](O)(CO)c1nc(-c2ccc(=O)n(-c3c(F)cccc3F)c2)c(-c2ccc(F)cc2F)o1` [Example 167 (2), 1-(2,6-difluorophenyl)-5-{5-(2,4-difluorophenyl)-2-[(1S)-1,2-dihydroxy-1-methylethyl]-1,3-oxazol-4-yl}-2(1H)-pyridinone] the same measures were 1.1 nM, 18 % of 30 uM amiodarone and “Negative”.

As usually defined, the IC50 is the concentration that inhibits the measured activity by half. Read a high IC50 as weaker potency.
